Measured values reported in patent publication US20250042974A1, “LIPID MEDIATOR CHAPERONE AND USES THEREOF” (The Children's Medical Center Corporation, priority 2021, published 2025).

What was measured:
HUVEC = assay: TEER analysis of endothelial barrier function; format: cell-based, human; settings: Iloprost 200 nM; HDL-S1P 100 nM S1P; AUY954 1 μM
Protocol: Transendothelial Electrical Resistance (TEER) was performed on HUVEC as described previously (Swendeman et al, 2017). Essentially, HUVECs were maintained in HUVEC Growth Medium (HGM; M199 medium supplemented with 10% FCS (Corning), 1:100 Pen-Strep (Sigma), 8 mM Glutamine (Sigma), Heparin (Sigma, 100 U, LMW) and Sheep Brain Extract prepared (REF). All cultures were maintained on Fibrobronectin (2 μg/ml) coated plates. For TEER analysis a 96 well ECIS system (96W10idf PET array, Applied BioPhysics) was employed. Wells were coated with Fibronectin (2 μg/ml) resuspended in saline for 30 minutes at room temp. HUVECs were harvested, resuspended in HGM at a cell density of 25-30×10^3 cells/well and allowed to adhere overnight. Prior to analysis, culture media was removed and replaced with M199 media supplemented with Pen-Strep/Glutamine and 1% FCS for 30 minutes. For stimulation studies, either Iloprost (Cayman Biochemicals) or Iloprost loaded onto ApoA1 or ApoA1-ApoM chaperones, or S1P prepared on ApoA1-ApoM or ApoM-Fc chaperones were added to cultures and TEER studies were performed from 3-24 hours.

NF-κB = assay: TNFα-induced NF-κB luciferase reporter assay in HMEC; format: cell-based, human
Protocol: TNFα-dependent NF-κB signaling was determined by using an NFκB-Luciferase based reporter assay system (pGL4.32[luc2P/NF-κB-RE/Hygro]; Promega). A stable NFκB reporter cell line in human microvascular endothelial cells (HMEC-1; ATCC) was created. HMEC were maintained in 10% FCS/Pen-Strep MCDB media supplemented with 2 mM L-Glutamine (Sigma), EGF (2 ng/ml; R&D systems) and Hydrocortisone (1 ng/ml; Sigma). […] The 5×10^5 reporter cells were distributed to 12 well plates and allowed to adhere for 24 hours. Media was replaced with MCDB media supplemented with 1% FCS, L-Glutamine. […] Samples were extracted using cell lysis buffers (Promega), luciferin substrate was added and the plates were measured for […] at 470 nm for 8-15 minutes in a SpectraMax L 96-well plate reader (Molecular Devices).

human platelets = assay: Human platelet aggregation in vitro (light transmission aggregometry); format: cell-based; settings: SFLLRN peptide-induced, 2-20 nM drug, N=2, read-out: EC50 of inhibition of platelet aggregation
Protocol: Whole blood samples were drawn from healthy donors in the presence of 10% sodium citrate (Sigma, 5577-50 ml) and were spun at 1000 rpm using Beckman centrifuge (GS-6K) for 20 min. The top Platelet-rich Plasma (PRP) layer was collected resting at a 37° C. water bath for 30 minutes. PRP was diluted with the one-fifth volume of the acid-citrate-dextrose buffer, Prostaglandin E1 (PGE1) was added to a final concentration of 0.15 μM. The mixture was spun in a conical-bottom tube at 2000 g for 10 min, and the platelet pellet was collected and suspended in pre-warmed HEPES-Tyrode-Glucose Buffer (HTG). The platelet concentration was determined and adjusted to ˜2.5×10^5/μL with HTG on a Hematology cell counter System (Drew Scientific, 850FS).
Light Transmission Aggregometry was used to evaluate the platelet response to agonists and antagonists. In a 4-channel aggregometer (Platelet ionized calcium aggregometer, Chronolog Corp Model 660), human platelets were stirred in a cuvette at 37° C. […] Data were analyzed using AGGRO/LINK software package Ver 5.2.5 and Microsoft office professional plus 2013.

## O=C(O)CCNCc1ccc2sc(-c3ccc(-c4ccccc4)c(C(F)(F)F)c3)cc2c1 [AUY954, reference compound]
HUVEC
  endothelial barrier function in combination with Iloprost: additive manner

## ApoA1: Purified Human ApoA1 (Sigma) [reference compound]
NF-κB; 100-400 μg/ml, bi-phasic dose-response
  inhibition of TNFα-induced NF-κB activity at higher doses: not as inhibitory
NF-κB; low doses 25-50 μg/ml
  inhibition of TNFα-induced NF-κB activity: ~25%

## CC#CCC(C)[C@H](O)/C=C/[C@@H]1[C@H]2C/C(=C/CCCC(=O)O)C[C@H]2C[C@H]1O (stereo partly shown) [Iloprost]
Human platelets
  EC50: ~11 nM
